Measured values taken from PubChem BioAssay AID330 (DTP/NCI, 2004).
“And” between values parts separate entries of the source, which are not always exact repeats. Identical values can stand only once. Toxic doses and inconclusive results are not listed.

Tested on: P388 leukemia ip, CD2F1 mice, survival T/C
Test: NCI In Vivo Anticancer Drug Screen. Data for tumor model P388 Leukemia (intraperitoneal) in CD2F1 (CDF1) mice
Conditions: endpoint: median survival time, higher = longer survival
Procedure, shortened: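 Mice carrying the transplanted tumor received test compound or vehicle. Survival was recorded in each group, and the value is the treated-group measurement divided by that of the vehicle-treated control group.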

[1] = dose: 25.0 mg/kg/injection, schedule: Q04DX003 (ip), vehicle: saline with Tween-80
[2] = dose: 50.0 mg/kg/injection, schedule: Q04DX003 (ip), vehicle: saline with Tween-80
[3] = dose: 100.0 mg/kg/injection, schedule: Q04DX003 (ip), vehicle: saline with Tween-80
[4] = dose: 50.0 mg/kg/injection, schedule: Q01DX009 (ip), vehicle: saline with Tween-80
[5] = dose: 100.0 mg/kg/injection, schedule: Q01DX009 (ip), vehicle: saline with Tween-80

CN(N=O)C(N)=O
T/C (dose: 5.0 mg/kg/injection, schedule: Q04DX003 (ip), vehicle: saline with Tween-80): 104 % of control
T/C (dose: 10.0 mg/kg/injection, schedule: Q04DX003 (ip), vehicle: saline with Tween-80): 119 % of control
T/C (dose: 12.5 mg/kg/injection, schedule: Q01DX009 (ip), vehicle: saline with Tween-80): 159 % of control
T/C (dose: 25.0 mg/kg/injection, schedule: Q01DX009 (ip), vehicle: saline with Tween-80): 95 % of control
T/C [1]: 177 % of control
T/C (dose: 37.5 mg/kg/injection, schedule: Q04DX003 (ip), vehicle: saline with Tween-80): 172 % of control
T/C [2]: 113 % of control

Cn1ncc2c(NCCc3ccccc3)ncnc21
T/C [3]: 109 % of control

CN(C)c1ccc(C(=O)C(=O)c2ccccc2)cc1
T/C (dose: 100.0 mg/kg/injection, schedule: Q04DX003 (ip), vehicle: Klucel (hydroxypropylcellulose) (HPC)): 106 % of control
T/C (dose: 200.0 mg/kg/injection, schedule: Q04DX003 (ip), vehicle: Klucel (hydroxypropylcellulose) (HPC)): 99 % of control
T/C (dose: 400.0 mg/kg/injection, schedule: Q04DX003 (ip), vehicle: Klucel (hydroxypropylcellulose) (HPC)): 100 % of control

CC(=O)O[C@@H]1C[C@H]2C(C)(C)C(=O)C=C[C@]2(C)[C@H]2CC[C@]3(C)C(=CC(=O)O[C@]3(O)c3ccoc3)[C@@]21C
T/C (dose: 1.0 mg/kg/injection, schedule: Q01DX005 (ip), vehicle: Klucel (hydroxypropylcellulose) (HPC)): 95 % of control
T/C (dose: 2.0 mg/kg/injection, schedule: Q01DX005 (ip), vehicle: Klucel (hydroxypropylcellulose) (HPC)): 100 % of control
T/C (dose: 4.0 mg/kg/injection, schedule: Q01DX005 (ip), vehicle: Klucel (hydroxypropylcellulose) (HPC)): 95 % of control
T/C (dose: 8.0 mg/kg/injection, schedule: Q01DX005 (ip), vehicle: Klucel (hydroxypropylcellulose) (HPC)): 95 % of control

O=c1[nH]c2c([N+](=O)[O-])cc(Cl)cc2nc1/C=C(\O)c1ccncc1
T/C (dose: 60.0 mg/kg/injection, schedule: Q01DX005 (ip), vehicle: Klucel (hydroxypropylcellulose) (HPC)): 102 % of control
T/C (dose: 120.0 mg/kg/injection, schedule: Q01DX005 (ip), vehicle: Klucel (hydroxypropylcellulose) (HPC)): 99 % of control

CC(C)C(Nc1nncs1)Nc1nncs1
T/C (dose: 60.0 mg/kg/injection, schedule: Q01DX005 (ip), vehicle: saline with Tween-80): 103 % of control
T/C (dose: 120.0 mg/kg/injection, schedule: Q01DX005 (ip), vehicle: saline with Tween-80): 109 % of control
T/C (dose: 240.0 mg/kg/injection, schedule: Q01DX005 (ip), vehicle: saline with Tween-80): 118 % of control

CS(=O)(=O)OCCN(CCOS(C)(=O)=O)c1cccc(C(F)(F)F)c1
T/C (dose: 0.75 mg/kg/injection, schedule: Q04DX003 (ip), vehicle: saline): 100 % of control
T/C (dose: 1.5 mg/kg/injection, schedule: Q04DX003 (ip), vehicle: saline): 100 % of control
T/C (dose: 3.0 mg/kg/injection, schedule: Q04DX003 (ip), vehicle: saline): 100 % of control
T/C [1]: 170 % of control and 212 % of control
T/C [4]: 159 % of control
T/C [2]: 216 % of control
T/C [5]: 213 % of control
T/C [3]: 87 % of control

C/C=C/CC(C)C(O)C1C(=O)NC(CC)C(=O)N(C)CC(=O)N(C)C(CC(C)C)C(=O)NC(C(C)C)C(=O)N(C)C(CC(C)C)C(=O)NC(C)C(=O)NC(C)C(=O)N(C)C(CC(C)C)C(=O)N(C)C(CC(C)C)C(=O)N(C)C(C(C)C)C(=O)N1C (stereo not drawn)
T/C (dose: 15.0 mg/kg/injection, schedule: Q01DX009 (ip), vehicle: Klucel (hydroxypropylcellulose) (HPC)): 106 % of control
T/C (dose: 30.0 mg/kg/injection, schedule: Q01DX009 (ip), vehicle: Klucel (hydroxypropylcellulose) (HPC)): 109 % of control
T/C (dose: 60.0 mg/kg/injection, schedule: Q01DX009 (ip), vehicle: Klucel (hydroxypropylcellulose) (HPC)): 116 % of control
T/C (dose: 120.0 mg/kg/injection, schedule: Q01DX009 (ip), vehicle: Klucel (hydroxypropylcellulose) (HPC)): 109 % of control

Cc1ccc(S(=O)(=O)C(Sc2ccccc2)=S=NC23CC4CC(CC(C4)C2)C3)cc1
T/C (dose: 50.0 mg/kg/injection, schedule: Q01DX009 (ip), vehicle: saline): 100 % of control
T/C (dose: 100.0 mg/kg/injection, schedule: Q01DX009 (ip), vehicle: saline): 108 % of control
T/C (dose: 200.0 mg/kg/injection, schedule: Q01DX009 (ip), vehicle: saline): 97 % of control

C(=N\Nc1nc2ccccc2s1)/c1ccc(/C=N/Nc2nc3ccccc3s2)cc1
T/C [4]: 105 % of control
T/C [5]: 105 % of control
T/C (dose: 200.0 mg/kg/injection, schedule: Q01DX009 (ip), vehicle: saline with Tween-80): 102 % of control

CC(C)CNCC(=O)Nc1ccc(Cc2ccc(NC(=O)CNCC(C)C)cc2)cc1
T/C (dose: 50.0 mg/kg/injection, schedule: Q01DX005 (ip), vehicle: saline with Tween-80): 102 % of control
T/C (dose: 100.0 mg/kg/injection, schedule: Q01DX005 (ip), vehicle: saline with Tween-80): 97 % of control

COC(C)C(Br)C(=O)NN=C(c1ccccc1)c1ccccc1 (stereo not drawn)
T/C (dose: 100.0 mg/kg/injection, schedule: Q04DX003 (ip), vehicle: saline): 95 % of control
T/C (dose: 200.0 mg/kg/injection, schedule: Q04DX003 (ip), vehicle: saline): 93 % of control
T/C (dose: 400.0 mg/kg/injection, schedule: Q04DX003 (ip), vehicle: saline): 95 % of control
